Values joined by “and” are separate entries in the source; they are usually repeats but may differ in a detail not shown here. Identical values can stand only once.
Tests used:
[1] = system: B16-F10 melanoma cells; assay: Prophylactic vaccination, B16-F10 melanoma tumor challenge; settings: for mouse survival: antigen matrices, CpG and GM-CSF together versus GM-CSF alone
Experimental: PLG scaffolds with melanoma tumor lysates and various dosages of GM-CSF and/or 10 μg PEI-CpG-ODN condensates were implanted subcutaneously into the lower left flank of C57BL/6J mice. Animals were challenged 14 days later with a subcutaneous injection of 10^5 B16-F10 melanoma cells (ATCC, Manassas, N.J.) in the back of the neck. Animals were monitored for the onset of tumor growth (approximately 1 mm^3) and sacrificed for humane reasons when tumors grew to 20-25 mm (longest diameter).
PLG scaffolds with melanoma tumor lysates and various dosages of GM-CSF and/or various quantities of PEI-CpG-ODN condensates were implanted subcutaneously into the lower left flank of C57BL/6J mice. For prophylactic vaccinations, animals were challenged 14 days later with a subcutaneous injection of 10^5 B16-F10 melanoma cells [American Type Culture Collection (ATCC)] in the back of the neck. Animals were monitored for the onset of tumor growth (˜1 mm^3) and killed for humane reasons when tumors grew to 20 to 25 mm (longest diameter).

[2] = system: B16-F10 melanoma tumors; assay: T-cell infiltration into tumor tissue (immunohistochemistry); format: in vivo, C57BL/6J mice
Experimental: PLG scaffolds with melanoma tumor lysates and various dosages of GM-CSF and/or 10 μg PEI-CpG-ODN condensates were implanted subcutaneously into the lower left flank of C57BL/6J mice. Animals were challenged 14 days later with a subcutaneous injection of 10^5 B16-F10 melanoma cells (ATCC, Manassas, N.J.) in the back of the neck. Animals were monitored for the onset of tumor growth (approximately 1 mm^3) and sacrificed for humane reasons when tumors grew to 20-25 mm (longest diameter). For histological examination, tumors were biopsied at days 20-25 after injection and fixed in Z-fix (Anatech, Battle Creek, Mich.) and stained for hematoxylin and eosin. To examine tumor tissue for T-cell infiltration, immunoperoxidase staining was performed using the avidin-biotin-peroxidase Vectastain Elite ABC kit (Vector Laboratories). The primary antibodies used were GK 1.5 (CD4), and 53-6.72 (CD8) and staining was developed using DAB+ substrate chromogen (DAKO, Carpinteria, Calif.). Sections from tumor samples (n=3 or 4) were visualized at 40× and 100× with a Nikon light microscope (Indianapolis, Ind.) and positively stained T-cells were counted manually.

[3] = system: TRP2-specific CTLs; assay: TRP2-specific CTLs in spleens (pentamer staining); format: in vivo, C57BL/6J mice; settings: GM-CSF, antigen
Text: […] These cells were initially stained with APC-H-2Kb-TRP2 pentamers (Proimmune) and subsequently stained with PE-conjugated monoclonal antibody to CD8 (BD Pharmingen) before being analyzed by flow cytometry.

[4] = system: B16-F10 melanoma cells; assay: Example 7: prophylactic vaccination, B16-F10 melanoma; format: in vivo, C57BL/6J mice; set-up: concentration or dose not given beside the values; settings: for survival rate: B16-F10 tumor lysates and GM-CSF, with or without TLR agonist, challenge at day 14
[5] = system: host DCs; assay: In vivo DC recruitment and activation in PLG matrices (FACS); set-up: species or system C57BL/6J mice; settings: for proportion of CD8+ cDCs in DC population at vaccine site / proportion of pDCs in DC population at vaccine site / total DC numbers in situ: antigen-loaded matrices, CpG and GM-CSF together versus GM-CSF alone
Experimental: Blank scaffolds and scaffolds containing GM-CSF with or without 10 μg PEI-ODN control (5′-tcc atg agc ttc ctg agc tt-3′) (SEQ ID NO: 6) or 10 μg PEI-CpG-ODN condensate loaded scaffolds were implanted into subcutaneous pockets on the back of 7-9 week old male C57BL/6J mice. For histological examination scaffolds were excised and fixed in Z-fix solution, embedded in paraffin, and stained with hematoxylin and eosin. To analyze DC recruitment, scaffolds were excised and the ingrown tissue was digested into single cell suspensions using a collagenase solution (Worthingtion, 250 U/ml) that was agitated at 37° C. for 45 minutes. The cell suspensions were then poured through a 40 μm cell strainer to isolate cells from scaffold particles and the cells were pelleted and washed with cold PBS and counted using a Z2 coulter counter (Beckman Coulter). The resultant cell populations were then stained with primary antibodies (BD Pharmingen, San Diego, Calif.) conjugated to fluorescent markers to allow for analysis by flow cytometry. APC-conjugated CD11c (dendritic cell marker) and PE-conjugated CD86 (B7, costimulatory molecule) stains were conducted for DC recruitment analysis, and APC-conjugated CD11c, FITC-conjugated CCR7, and PE-conjugated MHCII stains were conducted for DC programming analysis. Cells were gated according to positive FITC, APC and PE using isotype controls, and the percentage of cells staining positive for each surface antigen was recorded. To track in vivo DC emigration from scaffolds toward the inguinal lymph nodes, 250 μg of lyophilized fluoroscein isothiocyanate (FITC) (Molecular Probes, Carlsbad, Calif.) was incorporated into scaffolds by mixing with PLG microspheres before scaffold processing, and FITC was also applied by incubating scaffolds with 330 ul of 3% FITC solution for 30 min. […] Cell suspensions from LNs were prepared by digestion in collagenase for 30 min and pressing of the tissue through 70 μm cell strainers, and examined for CD11c(+)FITC(+) cell numbers by flow cytometry.
Blank PLG matrices and matrices containing 3000 ng of GM-CSF alone or in combination with either 1, 10, 50, or 100 μg of CpG-ODN (studies were also performed with tumor lysates copresented with either 3000 ng of GM-CSF or 100 μg of CpG-ODN alone or in combination) were implanted into subcutaneous pockets on the back of 7- to 9-week-old male C57BL/6J mice. For histological examination, scaffolds were excised and fixed in Z-fix solution (Anatech), embedded in paraffin, and stained with hematoxylin and eosin (H&E). To analyze DC recruitment, scaffolds were excised at various time points and digested the ingrown tissue into single-cell suspensions with a collagenase solution (250 U/ml; Worthington) that was agitated at 37° C. for 45 min. The cell suspensions were then poured through a 40-μm cell strainer to isolate cells from scaffold particles, and the cells were pelleted and washed with cold PBS and counted with a Z2 coulter counter (Beckman Coulter). To assess DC infiltration and activation, subsets of the total cell population isolated from PLG matrices were stained with primary antibodies (BD Pharmingen) conjugated to fluorescent markers to allow for analysis by flow cytometry. Allophycocyanin (APC)-conjugated CD11c (DC marker) and phycoerythrin (PE)-conjugated CD86 (B7, costimulatory molecule) stains were conducted for DC recruitment analysis, and APC-conjugated CD11c, fluorescein isothiocyanate (FITC)-conjugated CCR7, and PE-conjugated MHCII stains were conducted for DC programming analysis. To further delineate the presence of specific DC subsets, cells were stained with APC-conjugated CD11c and PE-conjugated PDCA-1 (pDC marker), APC-conjugated CD11c and PE-conjugated CD8 (CD8 DCs), or APC-conjugated CD11c and FITC-conjugated CD11b (CD11b DCs).

[6] = In vitro release / retention of GM-CSF, cytokines and TLR agonists from PLG scaffolds; format: physicochemical
Experimental: To determine the incorporation efficiency of CpG-ODN incorporation, PLG scaffolds were prepared with 50 ug of CpG-ODN and digested in 1 ml of chloroform (Sigma Aldrich, and washed with 2 mls of aqueous buffer. The aqueous phase was isolated and the amount of CpG-ODN incorporated was determined by absorbance readings (260/280 and 260/230 ratios calculated at 0.2 mm pathlength) using a Nanodrop instrument, ND1000 (Nanodrop technologies, Wilmington, Del.). Similarly, to determine CpG-ODN release kinetics CpG-ODN loaded scaffolds were placed in 1 ml of Phosphate Buffer Solution (PBS) in an incubator (37° C.). At various timepoints, the PBS release media was collected and replaced with fresh media. The total amount of CpG-ODN incorporated into PLG scaffolds and released into PBS over time was analyzed and recorded.

[7] = optimal CpG-ODN doses (10-25 μg) opposed by GM-CSF 3 μg, in vivo
[8] = tumor lysate with GM-CSF and CpG, day 10
[9] = optimal GM-CSF exposure (400 ng) with tumor antigen

CpG-ODN 1826
mouse survival [1]: 90% | survival rate ([1]; lysate, GM-CSF and 10 μg CpG-ODN): 50% and 45% | survival rate ([1]; lysate, GM-CSF and 10 μg CpG-ODN, listed as CpG): 50% | survival rate ([1]; lysate, GM-CSF and 50 μg CpG-ODN): 60% | survival rate ([1]; lysate, GM-CSF and 100 μg CpG-ODN): 90% | vaccinated mice surviving B16-F10 challenge ([1]; tumor lysates with CpG-ODN (1, 10, 50 or 100), no GM-CSF): 10 to 30% and 20% and 10-30% | increase in CD8(+) T-cell infiltration into tumors over controls ([2]; infection mimics, 10 μg CpG-ODN dose): ~3 fold | TRP2-specific CD8 T cells ([3]; CpG dose 50 μg): 0.3 % splenocytes | survival rate [4]: 90% | long-term survival ([4]; wildtype mice, CpG-ODN loaded PLG vaccines): 100% | numbers of resident pDCs ([5]; 3000 ng GM-CSF, 10 μg CpG-ODN): 520,000 cells | numbers of resident pDCs ([5]; 3000 ng GM-CSF, 100 μg CpG-ODN): 1,200,000 cells and 1,100,000 cells | increase in CCR7 expressing DCs in matrices over GM-CSF or CpG-ODN delivery alone ([5]; CpG-ODN with GM-CSF): ~4.5 fold | increase in MHCII expressing DCs in matrices over GM-CSF or CpG-ODN delivery alone ([5]; CpG-ODN with GM-CSF): approximately 2.5 fold | total cells at the matrix site that were CD8(+) ([5]; antigen presenting matrices with GM-CSF and CpG-ODN): 10.3% | proportion of CD8+ cDCs in DC population at vaccine site ([5]; day 10, listed as CpG): ~14% and ~9.4% | proportion of pDCs in DC population at vaccine site ([5]; day 10, listed as CpG): ~31% and ~38% | total DC numbers in situ ([5]; listed as CpG): 3.0±0.6 million DCs and 3.05±0.55 million DCs | optimal CpG-ODN dose for DC activation in vivo ([5]; in presence of high GM-CSF levels): 10 to 25 µg | numbers of activated DCs generated ([5]; infection-mimicking system, CpG-ODN ~10-25 μg with GM-CSF): > 10^6 | DC activation [5, 7]: 44% | number of activated DCs [5, 7]: 1.5×10^6 cells | increase (factor / fold) in pDCs over blank controls [5, 8]: 10 | increase (factor / fold) in pDCs over matrices without lysate/antigen [5, 8]: 2 | increase (factor / fold) in CD8+ DCs over blank matrices ([5]; tumor lysates with CpG-ODN and GM-CSF): 9 | number of CD8+ DCs (CD11c(+)CD8(+) cDCs) in matrices ([5]; tumor lysates with CpG-ODN, no GM-CSF): 200,000 | retained in the PLG matrices ([6]; over 25 days): > 80%

B1: granulocyte macrophage colony stimulating factor (protein, UniProt P01587 18-141, looked up)
Granulocyte-macrophage …: APTRSPITVTRPWKHVEAIKEALNLLDDMPVTLNEEVEVVSNEFSFKKLTCVQTRLKIFEQGLRGNFTKLKGALNMTASYYQTYCPPTPETDCETQVTTYADFIDSLKTFLTDIPFECKKPGQK
notes: cytokine encapsulated in and released from PLG matrices to recruit DCs
animals cured / with protective anti-tumor immunity ([1]; GM-CSF with antigen, optimal GM-CSF dose): 23% | mouse survival [1]: 20% | animal survival ([1]; lysate, GM-CSF, CpG dose 0 μg): 23% | delay of tumor formation ([1]; optimal GM-CSF dose with antigen, in 50% of the animals): approximately 40 days | increase in average time before tumor formation compared to antigen alone [1, 9]: 3 fold | increase in average time before tumor formation over non-optimal GM-CSF exposure [1, 9]: ~2 fold | increase in CD8(+) cytotoxic T-cell numbers in tumors over blank controls ([2]; appropriate GM-CSF presentation with antigen): 2 fold | TRP2-specific CD8 T cells ([3]; CpG dose 0 μg): 0.2 % splenocytes | survival rate [4]: 10% | day at which activation state of DCs peaked ([5]; 3000 ng GM-CSF): 10 days | numbers of resident pDCs ([5]; 3000 ng GM-CSF, 0 μg CpG-ODN): 190,000 cells | increase (factor / fold) in CD11c DCs recruited vs blank PLG matrices ([5]; 3000 ng GM-CSF, day 14): ~8 | day at which activation state of DCs peaked ([5]; 7000 ng GM-CSF): 28 days | matrix-resident DCs that were CD11b+ ([5]; GM-CSF delivery): ~87% | number of DCs residing in the material ([5]; GM-CSF delivery): ~10^6 cells | total DC numbers in situ [5]: 4.2±0.9 million DCs and 2.67±0.64 million DCs | proportion of CD8+ cDCs in DC population at vaccine site ([5]; day 10): 5.5% | proportion of pDCs in DC population at vaccine site ([5]; day 10): 7% | number of activated DCs ([5]; best GM-CSF-based vaccine): ~240,000 DCs | recruited DCs that were activated ([5]; best GM-CSF-based vaccine): approximately 26% | incorporated cytokine released from scaffolds ([6]; by day 4, in vitro): approximately 43% | GM-CSF protein released from PLG matrices ([6]; by day 10, in vitro): approximately 60% | daily release of protein ([6]; over the next 23 days after day 4): approximately 0.9% | bioactive GM-CSF load released from PLG matrices ([6]; within the first 5 days): approximately 60%

From patent publication US10568949B2, “Method of eliciting an anti-tumor immune response with controlled delivery of TLR agonists in porous polymerlc devices” (President and Fellows of Harvard College, priority 2008, dated 2020)
